In patent publication US9993494B2, “Compositions and methods for treating fibrotic disease” (eFFECTOR Therapeutics, Inc., priority 2014, dated 2018):

Assays:
[1] = test system: normal human lung fibroblasts; experiment: Procollagen Type 1 C-Peptide (PIPC) EIA in culture media of TGFβ-treated fibroblasts; type: cell-based; settings: fibroblasts treated with TGFβ, 24 hours, procollagen ELISA
Experimental: (§1) Briefly, normal human lung fibroblasts (Lonza #CC-2512; cell passage numbers 2 through 5 were used for all experiments) were seeded (Day 0) and cultured in Dulbecco's modified Eagle medium (DMEM) supplemented with 10% fetal bovine serum (FBS), penicillin, streptomycin and glutamax (Invitrogen) at 37° C. in a humidified incubator with 5% CO2 overnight. On Day 1, cells were harvested, washed with phosphate buffered saline (PBS), and then incubated for 48 hours in fresh serum-free DMEM supplemented with penicillin, streptomycin, and glutamax.
(§2) After this 24 hour incubation, procollagen type 1 levels were measured by collecting culture media, centrifuging to pellet cellular debris, and stored at −80° C. Procollagen Type 1 C-Peptide (PIPC) was quantified using the (PIP) EIA kit (Clontech, Cat. No. MK101) according to manufacturer's instructions. The TGFβ-treated fibroblasts of this example were examined by ribosomal profiling (about 6×10^6 cells/10 cm plate) and western blot analysis (about 1×10^6 cells/well of a 6-well plate).
as §1, with “(Lonza;” for “(Lonza #CC-2512;”, “CO2 conditions” for “CO2”, “glutamax. On Day 3, cells were harvested, resuspended in fresh serum-free DMEM containing silvestrol (1, 5, 10, 75, 100, 500, or 1000 nM) and 10 ng/ml TGFβ, and cultured for 24 hours. Controls included untreated cells and cells treated with only TGFβ.” for “glutamax.”
(§3) After this 24 hour incubation, procollagen type 1 levels were measured by collecting culture media, centrifuging to pellet cellular debris, and stored at −80° C. Procollagen Type 1 C-Peptide (PIPC) was quantified using the (PIP) EIA kit (Clontech) according to manufacturer's instructions. The TGFβ-treated fibroblasts of this example are examined by ribosomal profiling (about 6×10^6 cells/10 cm plate) and western blot analysis (about 1×10^6 cells/well of a 6-well plate).
The levels of α-SMA and procollagen type 1, markers of fibroblast transdifferentiation into myofibroblasts and a surrogate for fibrotic disease progression, were measured after a 24 hour incubation of fibroblasts in the presence or absence of TGFβ sieIF4A1 or siCont. The knockdown efficiency was determined by quantitating the eIF4A mRNA level by qPCR (data not shown) and assessing the protein level by western analysis (see FIG. 11).

[2] = test system: normal human lung fibroblasts; experiment: Western blot of α-smooth muscle actin (α-SMA) in TGFβ-treated fibroblasts; type: cell-based; settings: fibroblasts treated with TGFβ, 24 hours, western blot
Experimental: as §1, §2
TGFβ-dependent activation of the PI3K/Akt/mTOR and ERK pathways were also examined by western blot analysis (about 1×10^6 cells/well from a 6-well plate). Briefly, cells were washed with PBS and lysed in 1× cell lysis buffer (Cell Signaling Technology, Inc., Danvers, Mass.) for 15 minutes at 4° C. Lysates were briefly sonicated, clarified by centrifugation for 15 minutes at 14,000 rpm, and then supernatants were collected. Protein concentration in the soluble fraction was determined by BCA protein assay (Thermo Scientific, Rockford, Ill.). Samples of protein (20 μg) were resolved on 4-20% Bis-Tris gradient gel (Invitrogen, Carlsbad, Calif.) and transferred to nitrocellulose membrane. The resulting blots were blocked for 1 hour at room temperature with Odyssey blocking solution (LI-COR) and then incubated with primary antibodies at 4° C. overnight. The following day, each blot was washed three times for 10 minutes in TBST, and then incubated with goat anti-rabbit fluorescent conjugated secondary antibody (IRDye 800 CW at 1:20,000; LI-COR) for 1 hour at room temperature. The blots were washed and scanned, and then specific proteins were detected by using the LI-COR Odyssey infrared imager. The following antibodies were used at 1:1000 dilution: anti-α-actin (Sigma #A2547), anti-phospho-4EBP(Ser65), anti-phospho-rpS6(Ser235/236)(#4858), anti-phospho-ERK1/2(Thr202/Tyr204)(#4370), anti-phospho-p70S6K(Thr421/Ser424)(#9204), anti-phospho-pAKT(Ser473), anti-phospho-MNK(Thr197/202), and anti-β-actin (#4970). Unless otherwise indicated, the antibodies were from Cell Signaling Technology, Inc. (Danvers, Mass.).
as §1, with “(Lonza;” for “(Lonza #CC-2512;”, “CO2 conditions” for “CO2”, “glutamax. On Day 3, cells were harvested, resuspended in fresh serum-free DMEM containing silvestrol (1, 5, 10, 75, 100, 500, or 1000 nM) and 10 ng/ml TGFβ, and cultured for 24 hours. Controls included untreated cells and cells treated with only TGFβ.” for “glutamax.”
as §3

With `CC(C)CCN1c2nc(Nc3cc(F)c(O)c(F)c3)ncc2N(C)C(=O)C1C` (centres unmarked) [BI-D1870, 2-[(3,5-Difluoro-4-hydroxyphenyl)amino]-7,8-dihydro-5,7-dimethyl-8-(3-methylbutyl)-6(5H)-pteridone] the “% Renormalization Collagen” value [1] was “+++ (+++ = >60%)” and the “% Renormalization α-SMA” value [2] was “++ (++ = 30-60%)”.
`N=C(N)NCCCCCCCN` [GC7, N1-guanyl-1,7-diaminoheptane] was tested, and the “% Renormalization Collagen” value [1] was “+ (+ = 0-30%)” and the “% Renormalization α-SMA” value [2] was “+ (+ = 0-30%)”.
In the case of `O=C(Nc1ccc(Cl)cc1)Nc1ccc2nonc2c1` [BOCPU, 1-(benzo[c][1,2,5]oxadiazol-5-yl)-3-(4-chlorophenyl)urea], the “% Renormalization α-SMA” value [2] is reported as “+++ (+++ = >60%)”.
For `Nc1nccc2c1ncn2[C@@H]1O[C@H](CO)[C@@H](O)[C@H]1O` [DZA, 3-deaza-adenosine], the “% Renormalization Collagen” value [1] was “+ (+ = 0-30%)” and the “% Renormalization α-SMA” value [2] was “+ (+ = 0-30%)”.
With `COC(=O)c1ccc2c(c1)NC(=O)/C2=C(\Nc1ccc(N(C)C(=O)CN2CCN(C)CC2)cc1)c1ccccc1` [Nintedanib] the “% Renormalization Collagen” value [1] was “+++ (+++ = >60%)” and the “% Renormalization α-SMA” value [2] was “+++ (+++ = >60%)”.
In the case of `CO[C@H]1C[C@@H]2CC[C@@H](C)[C@@](O)(O2)C(=O)C(=O)N2CCCC[C@H]2C(=O)O[C@H]([C@H](C)C[C@@H]2CC[C@@H](O)[C@H](OC)C2)CC(=O)[C@H](C)/C=C(\C)[C@@H](O)[C@@H](OC)C(=O)[C@H](C)C[C@H](C)/C=C/C=C/C=C/1C` [Rapamycin], the “% Renormalization Collagen” value [1] is reported as “++ (++ = 30-60%)” and the “% Renormalization α-SMA” value [2] is reported as “+ (+ = 0-30%)”.
